From paper PMC3021692, “Synthesis and Pharmacological Evaluation of Novel Schiff Base Analogues of 3-(4-amino) Phenylimino) 5-fluoroindolin-2-one” (Journal of Young Pharmacists : JYP, 2010)
Entries after “also recorded” stand apart in the source; their conditions may differ.

How the values were obtained:
Assay type in all cases: in vivo
[1] = test system: carrageenan-induced paw edema in rats; test: Anti-inflammatory activity, carrageenan-induced paw edema test; details: for Percent anti-inflammatory activity (percent inhibition of paw edema): mean ± SD (n = 6)
Protocol: (§1) The synthesized compounds were evaluated for analgesic, anti-inflammatory, and ulcerogenic index. […] The test compounds and the standard drugs were administered in the form of a suspension (1% carboxymethyl cellulose as a vehicle) by oral route for analgesic and anti-inflammatory but for ulcerogenicity studies by intraperitoneally as suspension in 10% v/v Tween-20. Each group consisted of six animals. The animals were procured from the C. L. Baid Metha College of pharmacy, Chennai, and were maintained in colony cages at 25 ±2°C, relative humidity of 45-55%, under a 12-h light and dark cycle; they were fed standard animal feed. All the animals were acclimatized for a week before use. The Institutional Animal Ethics Committee approved the protocol adopted for the experimentation of animals.
Anti-inflammatory activity was evaluated by carrageenan-induced paw edema test in rats.[15] Diclofenac sodium 10, 20 mg/kg was administered as a standard drug for comparison. The test compounds were administered at two dose levels (10 mg/kg, 20 mg/kg). The paw volumes were measured using the mercury displacement technique with the help of a plethysmograph (Model PLYAN; Buxco, USA) immediately before and 30 min, 1, 2, and 3 h after carrageenan injection. The percent inhibition of paw edema was calculated using the following formula.
Percent inhibition I = 100 1− (a−x) / (b−y)
Where x is the mean paw volume of rats before the administration of carrageenan and test compounds or reference compound (test group), a is the mean paw volume of rats after the administration of carrageenan in the test group (drug treated), b is the mean paw volume of rats after the administration of carrageenan in the control group, y is the mean paw volume of rats before the administration of carrageenan in the control group.

[2] = test system: Albino rats of Wistar strain; test: Evaluation of ulcerogenicity index (pylorus ligation); design: scale not given here; details: test compounds 20 mg/kg intraperitoneally, pylorus ligated on fourth day, mean ± SD (n = 6)
Protocol: The synthesized compounds were evaluated for analgesic, anti-inflammatory, and ulcerogenic index. […] The test compounds and the standard drugs were administered in the form of a suspension (1% carboxymethyl cellulose as a vehicle) by oral route for analgesic and anti-inflammatory but for ulcerogenicity studies by intraperitoneally as suspension in 10% v/v Tween-20. Each group consisted of six animals. The animals were procured from the C. L. Baid Metha College of pharmacy, Chennai, and were maintained in colony cages at 25 ±2°C, relative humidity of 45-55%, under a 12-h light and dark cycle; they were fed standard animal feed. All the animals were acclimatized for a week before use. The Institutional Animal Ethics Committee approved the protocol adopted for the experimentation of animals. Ulceration in rats was induced as described by Goyal et al. Albino rats of Wistar strain weighing 150-200 g of either sex were divided into various groups each of six animals.[16] Control group of animals was administered only with 10% v/v Tween 80 suspension intraperitonially. One group was administered with aspirin (German Remedies) intraperitoneally at a dose of 200 mg/kg once daily for 3 days. The remaining group of animals was administered with test compounds intraperitoneally at a dose of 20 mg/kg. On fourth day, Pylorus was ligated as per the method of Shay et al.[17] Animals were fasted for 36 h before the pylorus ligation procedure. Four hours after the ligation, animals were sacrificed. The stomach was removed and opened along with the greater curvature. Ulcer index was determined by the method of Ganguly and Bhatnagar.[18]

[3] = test system: Wistar albino mice; test: Analgesic activity, tail-flick technique; details: for Percent analgesic activity: mean ± SD (n = 6); for Analgesic activity (in words): tail-flick, structure-activity comparison within the series / vs diclofenac sodium
Protocol: as §1
The analgesic activity was performed by tail-flick technique using Wistar albino mice (25-35 g) of either sex selected by the random sampling technique.[1314] Diclofenac sodium at a dose level of 10 mg/kg and 20 mg/kg was administered orally as reference drug for comparison. The test compounds at two dose levels (10, 20 mg/kg) were administered orally. The reaction time was recorded at 30 min, 1, 2, and 3 h after the treatment, and cut-off time was 10 s. The percent analgesic activity (PAA) was calculated by the following formula, where T1 is the reaction time (s) before treatment, and T2 is the reaction time (s) after treatment.

[4] = 10 mg/kg oral, 30 min after carrageenan
[5] = 10 mg/kg oral, 1 h after carrageenan
[6] = 10 mg/kg oral, 2 h after carrageenan
[7] = 10 mg/kg oral, 3 h after carrageenan
[8] = 20 mg/kg oral, 30 min after carrageenan
[9] = 20 mg/kg oral, 1 h after carrageenan
[10] = 20 mg/kg oral, 2 h after carrageenan
[11] = 20 mg/kg oral, 3 h after carrageenan
[12] = 10 mg/kg oral, 30 min after treatment
[13] = 10 mg/kg oral, 1 h after treatment
[14] = 10 mg/kg oral, 2 h after treatment
[15] = 10 mg/kg oral, 3 h after treatment
[16] = 20 mg/kg oral, 30 min after treatment
[17] = 20 mg/kg oral, 1 h after treatment
[18] = 20 mg/kg oral, 2 h after treatment
[19] = 20 mg/kg oral, 3 h after treatment

Compound	Percent anti-inflammatory activity (percent inhibition of paw edema) [1, 4]	Percent anti-inflammatory activity (percent inhibition of paw edema) [1, 5]	Percent anti-inflammatory activity (percent inhibition of paw edema) [1, 6]	Percent anti-inflammatory activity (percent inhibition of paw edema) [1, 7]	Percent anti-inflammatory activity (percent inhibition of paw edema) [1, 8]	Percent anti-inflammatory activity (percent inhibition of paw edema) [1, 9]	Percent anti-inflammatory activity (percent inhibition of paw edema) [1, 10]	Percent anti-inflammatory activity (percent inhibition of paw edema) [1, 11]	Ulcer index [2]	Percent analgesic activity [3, 12]	Percent analgesic activity [3, 13]	Percent analgesic activity [3, 14]	Percent analgesic activity [3, 15]	Percent analgesic activity [3, 16]	Percent analgesic activity [3, 17]	Percent analgesic activity [3, 18]	Percent analgesic activity [3, 19]	Analgesic activity (in words) [3]	Anti-inflammatory activity compared to reference standard diclofenac sodium (in words) ([1]; carrageenan-induced paw edema in rats)
O=C1Nc2ccc(F)cc2C1=Nc1ccc(N=C2CCCCC2)cc1 [Compound N4]	38 ± 1.82 %	50 ± 1.24 %	55 ± 1.15 %	35 ± 1.76 %	45 ± 1.36 %	56 ± 1.83 %	60 ± 1.19 %	44 ± 1.65 %	0.89 ± 1.26	48 ± 1.28 %	52 ± 1.52 %	54 ± 1.15 %	35 ± 1.76 %	55 ± 1.36 %	57 ± 1.66 %	59 ± 1.19 %	44 ± 1.65 %	moderate decrease in activity	–
CC(=Nc1ccc(N=C2C(=O)Nc3ccc(F)cc32)cc1)c1ccccc1 [Compound N5]	39 ± 1.56 %	46 ± 1.88 %	52 ± 1.65 %	32 ± 1.26 %	45 ± 1.73 %	54 ± 1.95 %	59 ± 1.36 %	42 ± 1.48 %	0.82 ± 1.32	44 ± 1.76 %	49 ± 1.88 %	52 ± 1.55 %	32 ± 1.26 %	52 ± 1.33 %	55 ± 1.95 %	59 ± 1.36 %	42 ± 1.48 %	moderate decrease in activity	–
O=C1Nc2ccc(F)cc2C1=Nc1ccc(N=Cc2ccccc2)cc1 [Compound N6]	37 ± 1.67 %	42 ± 1.42 %	49 ± 1.58 %	36 ± 1.96 %	46 ± 1.48 %	55 ± 1.76 %	59 ± 1.93 %	38 ± 1.47 %	0.84 ± 1.78	37 ± 1.87 %	46 ± 1.42 %	49 ± 1.15 %	36 ± 1.96 %	49 ± 1.83 %	54 ± 1.76 %	59 ± 1.18 %	43 ± 1.47 %	decreasing activity	–
COc1ccc(C=Nc2ccc(N=C3C(=O)Nc4ccc(F)cc43)cc2)cc1 [Compound N7]	36 ± 1.74 %	42 ± 1.72 %	45 ± 1.55 %	33 ± 1.69 %	44 ± 1.76 %	55 ± 1.78 %	58 ± 1.66 %	41 ± 1.48 %	0.78 ± 1.19	34 ± 1.74 %	43 ± 1.72 %	45 ± 1.45 %	29 ± 1.69 %	47 ± 1.96 %	52 ± 1.67 %	56 ± 1.36 %	44 ± 1.48 %	decreasing activity; also recorded: further decrease of activity	–
O=C1Nc2ccc(F)cc2C1=Nc1ccc(N=Cc2ccc([N+](=O)[O-])cc2)cc1 [Compound N8]	40 ± 1.65 %	44 ± 1.53 %	48 ± 1.74 %	36 ± 1.36 %	49 ± 1.46 %	52 ± 1.92 %	56 ± 1.16 %	39 ± 1.48 %	0.92 ± 1.45	39 ± 1.75 %	46 ± 1.43 %	48 ± 1.24 %	36 ± 1.36 %	48 ± 1.46 %	51 ± 1.92 %	54 ± 1.16 %	39 ± 1.48 %	further decrease of activity	equipotent
O=C1Nc2ccc(F)cc2C1=Nc1ccc(N=Cc2ccc(Cl)cc2)cc1 [Compound N9]	38 ± 1.82 %	44 ± 1.32 %	48 ± 1.99 %	38 ± 1.72 %	46 ± 1.68 %	51 ± 1.46 %	57 ± 1.18 %	45 ± 1.32 %	0.75 ± 1.26	42 ± 1.82 %	44 ± 1.72 %	48 ± 1.59 %	38 ± 1.72 %	46 ± 1.68 %	51 ± 1.46 %	57 ± 1.18 %	45 ± 1.32 %	decreasing activity	–
